Measurements from patent US11628220B2, “Pharmaceutical composition and methods of uses” (Foresee Pharmaceuticals Co., Ltd., priority 2016, dated 2023).
In brackets after ≈: the same amount, converted by molar mass.

What was measured:
Type in all cases: physicochemical
[1] = Aqueous solubility in different cyclodextrin solutions (excess compound, shaken 24 hours, HPLC); details: aqueous cyclodextrin solution, thermodynamic from solid, room temperature, read-out: Solubility in CD's solution (concentration of compound)
Experimental: (§1) In order to test the effect of various CDs on the aqueous solubility of compound IVE, 1 mL of each of the following aqueous solutions as described in Table 2 was prepared. […] Excess IVE was present in all samples at all times to obtain solubility. After 24-hours, the samples were centrifuged. […] The size of the compound may allow it to form an inclusion complex, resulting in a higher aqueous solubility.
as §1, with “compound IVP,” for “compound IVE,”, “Table 3” for “Table 2”, “Excess IVP” for “Excess IVE”, “all times.” for “all times to obtain solubility.”
as §1, with “compound IVO,” for “compound IVE,”, “Table 4” for “Table 2”, “Excess IVO” for “Excess IVE”, “all times.” for “all times to obtain solubility.”, “inclusion body” for “inclusion”
as §1, with “compound IVQ,” for “compound IVE,”, “Table 5” for “Table 2”, “Excess IVQ” for “Excess IVE”, “all times.” for “all times to obtain solubility.”, “inclusion body” for “inclusion”

[2] = Solubility of compound IVO in solutions containing L-Arginine; details: thermodynamic from solid
Description: After 24-hours, the samples were centrifuged. […] One possibility is that L-Arginine may help promote the formation of inclusion complex between IVO and MBCD.

[3] = Comparable solubility test for IVO ASD-01 in DI water; details: 1.5 ml DI water
Experimental: The samples were centrifuged at 3 and 24 hours.

[4] = aqueous with cosolvent or surfactant or cyclodextrin, ACD 40 mg/ml
[5] = aqueous with cosolvent or surfactant or cyclodextrin, HPBCD 100 mg/ml
[6] = aqueous with cosolvent or surfactant or cyclodextrin, HPGCD 100 mg/ml
[7] = aqueous with cosolvent or surfactant or cyclodextrin, MBCD 100 mg/ml
[8] = aqueous with cosolvent or surfactant or cyclodextrin, SBEBCD 100 mg/ml

Molecule `COc1cccc(COc2ccc(Sc3ccoc3C3NC(=O)NC3=O)cc2)c1` (centres unmarked) [IVE, 5-{3-[4-(3-Methoxybenzyloxy)phenylthio]fur-2-yl}imidazolidine-2,4-dione] has a solubility at 24 h [1, 4] of 53 µg/mL (≈ 129 µM), a solubility at 24 h [1, 5] of 744 µg/mL (≈ 1810 µM) and a solubility at 24 h [1, 6] of 59 µg/mL (≈ 144 µM). It also gave a solubility at 24 h [1, 7] of 3250 µg/mL (≈ 7920 µM), a solubility at 24 h [1, 8] of 815 µg/mL (≈ 1990 µM) and a solubility at 24 h ([1]; water, ACD 0 mg/ml) of 23 µg/mL (≈ 56 µM). The solubility at 24 h ([1]; water, HPBCD 0 mg/ml) was 23 µg/mL (≈ 56 µM), the solubility at 24 h ([1]; water, HPGCD 0 mg/ml) was 23 µg/mL (≈ 56 µM) and the solubility at 24 h ([1]; water, MBCD 0 mg/ml) was 23 µg/mL (≈ 56 µM). For the same molecule, the solubility at 24 h ([1]; water, SBEBCD 0 mg/ml) was 23 µg/mL (≈ 56 µM).

Work on `Cc1cccc(COc2ccc(Sc3ccoc3C3NC(=O)NC3=O)cc2)c1` (centres unmarked) [IVO, 5-{3-[4-(3-Methyl-benzyloxy)phenylthio]fur-2-yl}imidazolidine-2,4-dione] yielded a solubility at 24 h ([2]; DI water, water, L-Arginine 0 % w/w in DI water) of 1.15 µg/mL (≈ 2.91 µM), a solubility at 24 h ([2]; aqueous L-Arginine solution in DI water, aqueous with cosolvent or surfactant or cyclodextrin, L-Arginine 0.15 % w/w in DI water) of 11.1 µg/mL (≈ 28.1 µM) and a solubility at 24 h ([2]; aqueous L-Arginine solution in DI water, aqueous with cosolvent or surfactant or cyclodextrin, L-Arginine 0.31 % w/w in DI water) of 15.1 µg/mL (≈ 38.3 µM). It also gave a solubility at 24 h ([2]; aqueous L-Arginine solution in DI water, aqueous with cosolvent or surfactant or cyclodextrin, L-Arginine 0.5 % w/w in DI water) of 25.3 µg/mL (≈ 64.2 µM), a solubility at 24 h ([2]; aqueous L-Arginine solution in DI water, aqueous with cosolvent or surfactant or cyclodextrin, L-Arginine 0.63 % w/w in DI water) of 34.2 µg/mL (≈ 86.7 µM) and a solubility at 24 h ([2]; aqueous L-Arginine solution in DI water, aqueous with cosolvent or surfactant or cyclodextrin, L-Arginine 1.25 % w/w in DI water) of 46.8 µg/mL (≈ 119 µM). The solubility at 24 h ([2]; aqueous L-Arginine solution in DI water, aqueous with cosolvent or surfactant or cyclodextrin, L-Arginine 2.5 % w/w in DI water) was 85.8 µg/mL (≈ 218 µM), the solubility at 24 h ([1]; aqueous with cosolvent or surfactant or cyclodextrin, ACD 5 mg/ml) was 37 µg/mL (≈ 93.8 µM) and the solubility at 24 h ([1]; aqueous with cosolvent or surfactant or cyclodextrin, ACD 10 mg/ml) was 30 µg/mL (≈ 76.1 µM). It also gave a solubility at 24 h ([1]; aqueous with cosolvent or surfactant or cyclodextrin, ACD 15 mg/ml) of 26 µg/mL (≈ 65.9 µM), a solubility at 24 h ([1]; aqueous with cosolvent or surfactant or cyclodextrin, ACD 20 mg/ml) of 13 µg/mL (≈ 33 µM) and a solubility at 24 h ([1]; aqueous with cosolvent or surfactant or cyclodextrin, ACD 30 mg/ml) of 10 µg/mL (≈ 25.4 µM). It also gave a solubility at 24 h [1, 4] of 17 µg/mL (≈ 43.1 µM), a solubility at 24 h ([1]; aqueous with cosolvent or surfactant or cyclodextrin, HPBCD 25 mg/ml) of 37 µg/mL (≈ 93.8 µM) and a solubility at 24 h ([1]; aqueous with cosolvent or surfactant or cyclodextrin, HPBCD 50 mg/ml) of 83 µg/mL (≈ 210 µM). It also gave a solubility at 24 h ([1]; aqueous with cosolvent or surfactant or cyclodextrin, HPBCD 75 mg/ml) of 108 µg/mL (≈ 274 µM), a solubility at 24 h [1, 5] of 184 µg/mL (≈ 466 µM) and a solubility at 24 h ([1]; aqueous with cosolvent or surfactant or cyclodextrin, HPBCD 150 mg/ml) of 312 µg/mL (≈ 791 µM). The solubility at 24 h ([1]; aqueous with cosolvent or surfactant or cyclodextrin, HPBCD 200 mg/ml) was 467 µg/mL (≈ 1180 µM), the solubility at 24 h ([1]; aqueous with cosolvent or surfactant or cyclodextrin, HPGCD 25 mg/ml) was 9 µg/mL (≈ 22.8 µM) and the solubility at 24 h ([1]; aqueous with cosolvent or surfactant or cyclodextrin, HPGCD 50 mg/ml) was 16 µg/mL (≈ 40.6 µM). For the same molecule, the solubility at 24 h ([1]; aqueous with cosolvent or surfactant or cyclodextrin, HPGCD 75 mg/ml) was 6 µg/mL (≈ 15.2 µM), the solubility at 24 h [1, 6] was 2 µg/mL (≈ 5.07 µM) and the solubility at 24 h ([1]; aqueous with cosolvent or surfactant or cyclodextrin, HPGCD 150 mg/ml) was 4 µg/mL (≈ 10.1 µM). For the same molecule, the solubility at 24 h ([1]; aqueous with cosolvent or surfactant or cyclodextrin, HPGCD 200 mg/ml) was 3 µg/mL (≈ 7.61 µM), the solubility at 24 h ([1]; aqueous with cosolvent or surfactant or cyclodextrin, MBCD 25 mg/ml) was 244 µg/mL (≈ 619 µM) and the solubility at 24 h ([1]; aqueous with cosolvent or surfactant or cyclodextrin, MBCD 50 mg/ml) was 477 µg/mL (≈ 1210 µM). The solubility at 24 h ([1]; aqueous with cosolvent or surfactant or cyclodextrin, MBCD 75 mg/ml) was 673 µg/mL (≈ 1710 µM), the solubility at 24 h [1, 7] was 1070 µg/mL (≈ 2700 µM) and the solubility at 24 h ([1]; aqueous with cosolvent or surfactant or cyclodextrin, MBCD 150 mg/ml) was 1700 µg/mL (≈ 4300 µM). For the same molecule, the solubility at 24 h ([1]; aqueous with cosolvent or surfactant or cyclodextrin, MBCD 200 mg/ml) was 1780 µg/mL (≈ 4520 µM), the solubility at 24 h ([1]; aqueous with cosolvent or surfactant or cyclodextrin, SBEBCD 25 mg/ml) was 94 µg/mL (≈ 238 µM) and the solubility at 24 h ([1]; aqueous with cosolvent or surfactant or cyclodextrin, SBEBCD 50 mg/ml) was 116 µg/mL (≈ 294 µM). For the same molecule, the solubility at 24 h ([1]; aqueous with cosolvent or surfactant or cyclodextrin, SBEBCD 75 mg/ml) was 156 µg/mL (≈ 395 µM), the solubility at 24 h [1, 8] was 174 µg/mL (≈ 441 µM) and the solubility at 24 h ([1]; aqueous with cosolvent or surfactant or cyclodextrin, SBEBCD 150 mg/ml) was 315 µg/mL (≈ 799 µM). It also gave a solubility at 24 h ([1]; aqueous with cosolvent or surfactant or cyclodextrin, SBEBCD 200 mg/ml) of 761 µg/mL (≈ 1930 µM), a solubility at 24 h ([1]; water, ACD 0 mg/ml) of 26 µg/mL (≈ 65.9 µM) and a solubility at 24 h ([1]; water, HPBCD 0 mg/ml) of 26 µg/mL (≈ 65.9 µM). It also gave a solubility at 24 h ([1]; water, HPGCD 0 mg/ml) of 26 µg/mL (≈ 65.9 µM), a solubility at 24 h ([1]; water, MBCD 0 mg/ml) of 26 µg/mL (≈ 65.9 µM) and a solubility at 24 h ([1]; water, SBEBCD 0 mg/ml) of 26 µg/mL (≈ 65.9 µM). For the same molecule, the “pH at 24 hrs equilibrium” value ([3]; 24 hrs) was 8.09, the solubility at 24 h ([3]; pH 8.09, thermodynamic from solid, room temperature, 24 hrs) was 11 µg/mL (≈ 27.9 µM) and the solubility at 3 h ([3]; thermodynamic from solid, room temperature, 3 hrs) was 2 µg/mL (≈ 5.07 µM).

In the case of `Cc1ccccc1COc1ccc(Sc2ccoc2C2NC(=O)NC2=O)cc1` (centres unmarked) [IVP, 5-{3-[4-(2-Methyl-benzyloxy)phenylthio]fur-2-yl}imidazolidine-2,4-dione], the solubility at 24 h [1, 4] is reported as 15 µg/mL (≈ 38 µM), the solubility at 24 h [1, 5] is reported as 727 µg/mL (≈ 1840 µM) and the solubility at 24 h [1, 6] is reported as 1 µg/mL (≈ 2.54 µM). It also gave a solubility at 24 h [1, 7] of 6270 µg/mL (≈ 15900 µM), a solubility at 24 h [1, 8] of 805 µg/mL (≈ 2040 µM) and a solubility at 24 h ([1]; water, ACD 0 mg/ml) of 64 µg/mL (≈ 162 µM). The solubility at 24 h ([1]; water, HPBCD 0 mg/ml) was 64 µg/mL (≈ 162 µM), the solubility at 24 h ([1]; water, HPGCD 0 mg/ml) was 64 µg/mL (≈ 162 µM) and the solubility at 24 h ([1]; water, MBCD 0 mg/ml) was 64 µg/mL (≈ 162 µM). The solubility at 24 h ([1]; water, SBEBCD 0 mg/ml) was 64 µg/mL (≈ 162 µM).

In the case of `O=C1NC(=O)C(c2occc2Sc2ccc(OCc3cccc(C(F)(F)F)c3)cc2)N1` (centres unmarked) [IVQ, 5-{3-[4-(3-Trifluoromethyl-benzyloxy)phenylthio]fur-2-yl}imidazolidine-2,4-dione], the solubility at 24 h [1, 4] is reported as 111 µg/mL (≈ 248 µM), the solubility at 24 h [1, 5] is reported as 1220 µg/mL (≈ 2710 µM) and the solubility at 24 h [1, 7] is reported as 5780 µg/mL (≈ 12900 µM). The solubility at 24 h [1, 8] was 641 µg/mL (≈ 1430 µM), the solubility at 24 h ([1]; water, ACD 0 mg/ml) was 138 µg/mL (≈ 308 µM) and the solubility at 24 h ([1]; water, HPBCD 0 mg/ml) was 138 µg/mL (≈ 308 µM). The solubility at 24 h ([1]; water, HPGCD 0 mg/ml) was 138 µg/mL (≈ 308 µM), the solubility at 24 h ([1]; water, MBCD 0 mg/ml) was 138 µg/mL (≈ 308 µM) and the solubility at 24 h ([1]; water, SBEBCD 0 mg/ml) was 138 µg/mL (≈ 308 µM).
